Where a SMILES comes first, the peptide text is derived from it. Bridges are numbered along the chain shown (N, C = ends). [ ]: non-standard residue; d: D form. Bip = N[C@@H](Cc1ccc(-c2ccccc2)cc1)C(=O)O; Cit = NC(=O)NCCC[C@H](N)C(=O)O; Orn = NCCC[C@H](N)C(=O)O; Dab = NCC[C@H](N)C(=O)O; Dap = NC[C@H](N)C(=O)O
Target: T1, human PD-1 / PD-L1-Ig binding on Jurkat cell line over-expressing human PD-1 (Jurkat-PD-1) (Homo sapiens, UniProt Q15116)
T1 construct: expressed in transfected cells; host or cells: Jurkat
T1 sequence (Q15116 25-288): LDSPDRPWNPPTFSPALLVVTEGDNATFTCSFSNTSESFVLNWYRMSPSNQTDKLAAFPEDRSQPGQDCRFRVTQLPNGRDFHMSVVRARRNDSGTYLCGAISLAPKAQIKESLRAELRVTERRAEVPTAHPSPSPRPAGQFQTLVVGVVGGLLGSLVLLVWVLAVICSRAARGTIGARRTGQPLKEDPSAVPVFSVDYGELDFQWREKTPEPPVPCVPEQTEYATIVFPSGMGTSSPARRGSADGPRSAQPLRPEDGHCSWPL
Assay: Jurkat-PD-1 Cell Binding High-Content Screening Assay (CBA)
Type: cell-based
Conditions: Jurkat HPD1_PDL1 IC50, Jurkat-PD-1 cells, PE-labeled PD-L1-Ig 20 nM final
Summary of the method: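 Cell-bound PE-labeled PD-L1-Ig (20 nM final, 1 h) measured by high-content imaging after fixation and Hoechst 33342 counterstain. Compound was applied first for 2 h at 37° C. to Jurkat cells over-expressing human PD-1 in DMEM with 10% FCS.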

| Compound | IC50 [nM] |
| --- | --- |
| CC(C)C[C@@H]1NC(=O)[C@H](Cc2c[nH]c3ccccc23)NC(=O)[C@H](CC(=O)O)NC(=O)[C@H](Cc2ccc(O)cc2)NC(=O)[C@H](Cc2ccccc2)NC(=O)CSC[C@@H](C(=O)NCC(N)=O)NC(=O)[C@H]([C@@H](C)O)NC(=O)[C@H](C(C)C)NC(=O)[C@H](CC(C)C)NC(=O)[C@H](CC(N)=O)NC(=O)[C@@H](C)NC(=O)[C@H](CCN)NC(=O)[C@H](C(C)C)NC(=O)[C@H](Cc2ccc(-c3ccccc3)cc2)NC1=O [Compound 1099] ({CH2CO}-FYDWL[Bip]V[Dab][dA]NLVTCG-NH2; thioether N-14) | 84.5 |
| CC(C)C[C@@H]1NC(=O)[C@H](Cc2c[nH]c3ccccc23)NC(=O)[C@H](CC(=O)O)NC(=O)[C@H](Cc2ccc(O)cc2)NC(=O)[C@H](Cc2ccccc2)NC(=O)CSC[C@@H](C(=O)NCC(N)=O)NC(=O)[C@H]([C@@H](C)O)NC(=O)[C@H](C(C)C)NC(=O)[C@H](CC(C)C)NC(=O)[C@H](CC(N)=O)NC(=O)[C@@H](C)NC(=O)[C@H](CCCN)NC(=O)[C@H](C(C)C)NC(=O)[C@H](Cc2ccc(-c3ccccc3)cc2)NC1=O [Compound 1107] ({CH2CO}-FYDWL[Bip]V[Orn][dA]NLVTCG-NH2; thioether N-14) | 310 |

Same assay, conditions: Jurkat-PD-1 cells, PE-labeled PD-L1-Ig 20 nM final; read-out: Jurkat HPD1_PDL1 IC50

| Compound | IC50 [nM] |
| --- | --- |
| CC(C)C[C@@H]1NC(=O)[C@H](Cc2c[nH]c3ccccc23)NC(=O)[C@H](CC(=O)O)NC(=O)[C@H](Cc2ccc(O)cc2)NC(=O)[C@H](Cc2ccccc2)NC(=O)CSC[C@@H](C(=O)NCC(N)=O)NC(=O)[C@H](CO)NC(=O)[C@H](C(C)C)NC(=O)[C@H](CC(C)C)NC(=O)[C@H](CCN)NC(=O)[C@@H](C)NC(=O)[C@H](CN)NC(=O)[C@H](C(C)C)NC(=O)[C@H](Cc2ccc(-c3ccccc3)cc2)NC1=O [Compound 1098] ({CH2CO}-FYDWL[Bip]V[Dap][dA][Dab]LVSCG-NH2; thioether N-14) | 115 |
| CC(C)C[C@@H]1NC(=O)[C@H](Cc2c[nH]c3ccccc23)NC(=O)[C@H](CC(=O)O)NC(=O)[C@H](Cc2ccc(O)cc2)NC(=O)[C@H](Cc2ccccc2)NC(=O)CSC[C@@H](C(=O)N[C@@H](C)C(N)=O)NC(=O)[C@H](CO)NC(=O)[C@H](C(C)C)NC(=O)[C@H](CC(C)C)NC(=O)[C@H](CC(N)=O)NC(=O)[C@@H](C)NC(=O)[C@H](CCN)NC(=O)[C@H](C(C)C)NC(=O)[C@H](Cc2ccc(-c3ccccc3)cc2)NC1=O [Compound 1100] ({CH2CO}-FYDWL[Bip]V[Dab][dA]NLVSCA-NH2; thioether N-14) | 41.4 |
| CC(C)C[C@@H]1NC(=O)[C@H](Cc2c[nH]c3ccccc23)NC(=O)[C@H](CC(=O)O)NC(=O)[C@H](Cc2ccc(O)cc2)NC(=O)[C@H](Cc2ccccc2)NC(=O)CSC[C@@H](C(=O)N[C@@H](C)C(N)=O)NC(=O)[C@H]([C@@H](C)O)NC(=O)[C@H](C(C)C)NC(=O)[C@H](CC(C)C)NC(=O)[C@H](CC(N)=O)NC(=O)[C@@H](C)NC(=O)[C@H](CCN)NC(=O)[C@H](C(C)C)NC(=O)[C@H](Cc2ccc(-c3ccccc3)cc2)NC1=O [Compound 1101] ({CH2CO}-FYDWL[Bip]V[Dab][dA]NLVTCA-NH2; thioether N-14) | 127 |
| CC(C)C[C@@H]1NC(=O)[C@H](Cc2c[nH]c3ccccc23)NC(=O)[C@H](CC(=O)O)NC(=O)[C@H](Cc2ccc(O)cc2)NC(=O)[C@H](Cc2ccccc2)NC(=O)CSC[C@@H](C(=O)NCC(N)=O)NC(=O)[C@H](CO)NC(=O)[C@H](C(C)C)NC(=O)[C@H](CC(C)C)NC(=O)[C@H](CC(N)=O)NC(=O)[C@@H](C)NC(=O)[C@H](CCN)NC(=O)[C@H](C(C)C)NC(=O)[C@H](Cc2ccc(-c3ccccc3)cc2)NC1=O [Compound 1102] ({CH2CO}-FYDWL[Bip]V[Dab][dA]NLVSCG-NH2; thioether N-14) | 71.1 |
| CC(C)C[C@@H]1NC(=O)[C@H](Cc2c[nH]c3ccccc23)NC(=O)[C@H](CC(=O)O)NC(=O)[C@H](Cc2ccc(O)cc2)NC(=O)[C@H](Cc2ccccc2)NC(=O)CSC[C@@H](C(=O)NCC(N)=O)NC(=O)[C@H]([C@@H](C)O)NC(=O)[C@H](C(C)C)NC(=O)[C@H](CC(C)C)NC(=O)[C@H](CCN)NC(=O)[C@@H](C)NC(=O)[C@H](CCN)NC(=O)[C@H](C(C)C)NC(=O)[C@H](Cc2ccc(-c3ccccc3)cc2)NC1=O [Compound 1103] ({CH2CO}-FYDWL[Bip]V[Dab][dA][Dab]LVTCG-NH2; thioether N-14) | 112 |
| CC(C)C[C@@H]1NC(=O)[C@H](Cc2c[nH]c3ccccc23)NC(=O)[C@H](CC(=O)O)NC(=O)[C@H](Cc2ccc(O)cc2)NC(=O)[C@H](Cc2ccccc2)NC(=O)CSC[C@@H](C(=O)N[C@@H](C)C(N)=O)NC(=O)[C@H](CO)NC(=O)[C@H](C(C)C)NC(=O)[C@H](CC(C)C)NC(=O)[C@H](CCN)NC(=O)[C@@H](C)NC(=O)[C@H](CCN)NC(=O)[C@H](C(C)C)NC(=O)[C@H](Cc2ccc(-c3ccccc3)cc2)NC1=O [Compound 1104] ({CH2CO}-FYDWL[Bip]V[Dab][dA][Dab]LVSCA-NH2; thioether N-14) | 43.6 |
| CC(C)C[C@@H]1NC(=O)[C@H](Cc2c[nH]c3ccccc23)NC(=O)[C@H](CC(=O)O)NC(=O)[C@H](Cc2ccc(O)cc2)NC(=O)[C@H](Cc2ccccc2)NC(=O)CSC[C@@H](C(=O)N[C@@H](C)C(N)=O)NC(=O)[C@H]([C@@H](C)O)NC(=O)[C@H](C(C)C)NC(=O)[C@H](CC(C)C)NC(=O)[C@H](CCN)NC(=O)[C@@H](C)NC(=O)[C@H](CCN)NC(=O)[C@H](C(C)C)NC(=O)[C@H](Cc2ccc(-c3ccccc3)cc2)NC1=O [Compound 1105] ({CH2CO}-FYDWL[Bip]V[Dab][dA][Dab]LVTCA-NH2; thioether N-14) | 102 |
| CC(C)C[C@@H]1NC(=O)[C@H](Cc2c[nH]c3ccccc23)NC(=O)[C@H](CC(=O)O)NC(=O)[C@H](Cc2ccc(O)cc2)NC(=O)[C@H](Cc2ccccc2)NC(=O)CSC[C@@H](C(=O)NCC(N)=O)NC(=O)[C@H](CO)NC(=O)[C@H](C(C)C)NC(=O)[C@H](CC(C)C)NC(=O)[C@H](CCN)NC(=O)[C@@H](C)NC(=O)[C@H](CCN)NC(=O)[C@H](C(C)C)NC(=O)[C@H](Cc2ccc(-c3ccccc3)cc2)NC1=O [Compound 1106] ({CH2CO}-FYDWL[Bip]V[Dab][dA][Dab]LVSCG-NH2; thioether N-14) | 66.7 |
| CC(C)C[C@@H]1NC(=O)[C@H](Cc2c[nH]c3ccccc23)NC(=O)[C@H](CC(=O)O)NC(=O)[C@H](Cc2ccc(O)cc2)NC(=O)[C@H](Cc2ccccc2)NC(=O)CSC[C@@H](C(=O)N[C@@H](C)C(N)=O)NC(=O)[C@H](CO)NC(=O)[C@H](C(C)C)NC(=O)[C@H](CC(C)C)NC(=O)[C@H](CC(N)=O)NC(=O)[C@@H](C)NC(=O)[C@H](CCCN)NC(=O)[C@H](C(C)C)NC(=O)[C@H](Cc2ccc(-c3ccccc3)cc2)NC1=O [Compound 1108] ({CH2CO}-FYDWL[Bip]V[Orn][dA]NLVSCA-NH2; thioether N-14) | 42.5 |
| CC(C)C[C@@H]1NC(=O)[C@H](CCN)NC(=O)[C@@H](CC(C)C)NC(=O)[C@H](CCCN)NC(=O)[C@H](CCCNC(N)=O)NC(=O)[C@H](Cc2ccc(-c3ccccc3)cc2)NC(=O)[C@H](C(C)C)NC(=O)[C@H](Cc2c[nH]c3ccccc23)NC(=O)[C@H](CC(=O)O)NC(=O)[C@H](Cc2ccc(O)cc2)NC(=O)[C@H](CC(N)=O)NC(=O)CSC[C@@H](C(=O)N[C@@H](C)C(N)=O)NC(=O)[C@H](CO)NC(=O)[C@H](C(C)C)NC1=O [Compound 1109] ({CH2CO}-NYDWV[Bip][Cit][Orn][dL][Dab]LVSCA-NH2; thioether N-14) | 36 |
| CC(C)C[C@@H]1NC(=O)[C@H](CCN)NC(=O)[C@@H](CC(C)C)NC(=O)[C@H](CCCCN)NC(=O)[C@H](CCCNC(N)=O)NC(=O)[C@H](Cc2ccc(-c3ccccc3)cc2)NC(=O)[C@H](C(C)C)NC(=O)[C@H](Cc2c[nH]c3ccccc23)NC(=O)[C@H](CC(=O)O)NC(=O)[C@H](Cc2ccc(O)cc2)NC(=O)[C@H](CC(N)=O)NC(=O)CSC[C@@H](C(=O)N[C@@H](C)C(N)=O)NC(=O)[C@H](CO)NC(=O)[C@H](C(C)C)NC1=O [Compound 1110] ({CH2CO}-NYDWV[Bip][Cit]K[dL][Dab]LVSCA-NH2; thioether N-14) | 35.6 |
| CC(C)C[C@@H]1NC(=O)[C@H](CCN)NC(=O)[C@@H](CC(C)C)NC(=O)[C@H](CCN)NC(=O)[C@H](CCCNC(N)=O)NC(=O)[C@H](Cc2ccc(-c3ccccc3)cc2)NC(=O)[C@H](C(C)C)NC(=O)[C@H](Cc2c[nH]c3ccccc23)NC(=O)[C@H](CC(=O)O)NC(=O)[C@H](Cc2ccc(O)cc2)NC(=O)[C@H](CC(N)=O)NC(=O)CSC[C@@H](C(=O)N[C@@H](C)C(N)=O)NC(=O)[C@H](CO)NC(=O)[C@H](C(C)C)NC1=O [Compound 1111] ({CH2CO}-NYDWV[Bip][Cit][Dab][dL][Dab]LVSCA-NH2; thioether N-14) | 37.9 |
| CC(C)C[C@@H]1NC(=O)[C@H](CCN)NC(=O)[C@@H](CC(C)C)NC(=O)[C@H](CCCN)NC(=O)[C@H](CCCNC(N)=O)NC(=O)[C@H](Cc2ccc(-c3ccccc3)cc2)NC(=O)[C@H](C(C)C)NC(=O)[C@H](Cc2c[nH]c3ccccc23)NC(=O)[C@H](CC(=O)O)NC(=O)[C@H](Cc2ccc(O)cc2)NC(=O)[C@H](CC(N)=O)NC(=O)CSC[C@@H](C(=O)NCC(N)=O)NC(=O)[C@H](CO)NC(=O)[C@H](C(C)C)NC1=O [Compound 1112] ({CH2CO}-NYDWV[Bip][Cit][Orn][dL][Dab]LVSCG-NH2; thioether N-14) | 17.1 |
| CC(C)C[C@@H]1NC(=O)[C@H](CCN)NC(=O)[C@@H](CC(C)C)NC(=O)[C@H](CCCCN)NC(=O)[C@H](CCCNC(N)=O)NC(=O)[C@H](Cc2ccc(-c3ccccc3)cc2)NC(=O)[C@H](C(C)C)NC(=O)[C@H](Cc2c[nH]c3ccccc23)NC(=O)[C@H](CC(=O)O)NC(=O)[C@H](Cc2ccc(O)cc2)NC(=O)[C@H](CC(N)=O)NC(=O)CSC[C@@H](C(=O)NCC(N)=O)NC(=O)[C@H](CO)NC(=O)[C@H](C(C)C)NC1=O [Compound 1113] ({CH2CO}-NYDWV[Bip][Cit]K[dL][Dab]LVSCG-NH2; thioether N-14) | 15.6 |
